Results published in US6017933A, “Mannich bases of conjugated styryl ketones” (University of Saskatchewan Technologies Inc., priority 1999, dated 2000).
In brackets after ≈: the same amount, converted by molar mass. Entries after “also recorded” stand apart in the source; their conditions may differ. Like-named read-outs stand apart in the source and are kept apart here.

How the values were obtained:
[1] = tested on: Aspergillus fumigatus conidia; experiment: Kill-curve experiment, Aspergillus fumigatus conidia; type: cell-based; conditions: Aspergillus fumigatus; 5 μm AMB or 5 μm ITZ, within 24 hr
Description: Kill-Curve Experiment: 5 ml conidial suspension each of the AMB-, and ITZ-susceptible (W73355) and the resistant (AB16.4 and ITZ70) isolates prepared in PYG broth (1×10^6 conidia/ml) was incubated at 35° C. in the presence of 5 μm of AMB or 5 μm ITZ or 50 μm Compound 9b. At various time intervals, 0.1 ml aliquots of the conidial suspension were removed, diluted appropriately to obtain 10^2 to 10^4 fold dilution, and 0.1 ml aliquots were spread in duplicate on PYG agar plates. […] Identical treatment of the conidial suspension in the absence of the drug was used as the growth control.

[2] = tested on: AMB-resistant Aspergillus fumigatus; experiment: MIC and MLC, AMB-resistant Aspergillus fumigatus, broth macrodilution; conditions: 48 h
[3] = tested on: ITZ-resistant Aspergillus fumigatus; experiment: MIC and MLC, ITZ-resistant Aspergillus fumigatus, broth macrodilution; conditions: 48 h
[4] = tested on: Aspergillus fumigatus; experiment: MIC and MLC, Aspergillus fumigatus, broth macrodilution; conditions: Aspergillus fumigatus, 48 h
[5] = tested on: human Jurkat T cells; experiment: Growth inhibition of Jurkat T cells, trypan blue exclusion test; type: cell-based; conditions: 48 h, read-out: growth of Jurkat T cells inhibited by 50% (IC50)
Description: All cell cultures used were maintained in RPMI 1640 medium, pH 7.4 supplanted with 10% fetal bovine serum and 50 μg/ml of gentamycin in 25 ml culture flasks at 37° C. in a humidified gas mixture of 5% carbon dioxide balanced with air and were passaged three times a week.
Cell viability was determined by the trypan blue exclusion test according to a literature procedure (Duke and Cohen, 1992). […] A flask containing ~10^6 cells/ml and 8 or […] of DMSO was used as the control. […] After 48 hours, cells were counted using a haemocytometer. The percentage of growth inhibition was calculated as follows: (C-T/C)×100 where C is the mean cell number in the control and T is the mean cell number in each treatment. […] All experiments were performed in triplicate.

[6] = tested on: human Jurkat T cells; experiment: DNA fragmentation by agarose gel electrophoresis; type: cell-based; conditions: Compound 9d 6 and 10 μM; melphalan 10 μM
[7] = tested on: CEM cells; experiment: Cytotoxicity, CEM human T-lymphocytes; conditions: for TIL1210 (CEM cells): IC50 T-lymphocytes (CEM)/IC50 L1210; for TIP388 (CEM cells): IC50 T-lymphocytes (CEM)/IC50 P388; for TIht (CEM cells): IC50 T-lymphocytes (CEM)/IC50 human tumors; for IC50: Homo sapiens, CCRF-CEM, read-out: CEM cells IC50
[8] = tested on: human tumors; experiment: Cytotoxicity, human tumor cell line panel (approximately 55 lines); conditions: for IC50: read-out: human tumors IC50, mean graph midpoint, approximately 55 cell lines, hydrobromide salts used for 4a, 11a-e
[9] = tested on: human Jurkat T cells; experiment: Apoptosis, fluorescence microscopy with acridine orange and ethidium bromide
[10] = tested on: human tumors
[11] = tested on: L1210 cells; experiment: Cytotoxicity, murine L1210 leukemic cells; type: cell-based; conditions: Mus musculus, mean
[12] = tested on: P388 cells; experiment: Cytotoxicity, murine P388 leukemic cells (P388 D1); conditions: read-out: P388 cells IC50
[13] = tested on: Molt 4/C8 cells; experiment: Cytotoxicity, Molt 4/C8 human T-lymphocytes; conditions: for TIL1210 (Molt 4/C8 cells): IC50 T-lymphocytes (Molt 4/C8)/IC50 L1210; for TIP388 (Molt 4/C8 cells): IC50 T-lymphocytes (Molt 4/C8)/IC50 P388; for TIht (Molt 4/C8 cells): IC50 T-lymphocytes (Molt 4/C8)/IC50 human tumors; for IC50: read-out: Molt 4/C8 cells IC50
[14] = tested on: SW-620; conditions: in vivo; cited from earlier work
[15] = tested on: NCI-H522; conditions: in vivo; cited from earlier work
[16] = tested on: CAKI-1; conditions: in vivo; cited from earlier work
[17] = tested on: COLO 205; conditions: in vivo; cited from earlier work
[18] = tested on: LOX IMVI; conditions: in vivo; cited from earlier work
[19] = tested on: P388 lymphocytic leukemia; conditions: 20 mg/kg intraperitoneally for five days; cited from earlier work
[20] = tested on: P388 lymphocytic leukemia; experiment: Murine P388 lymphocytic leukemia in vivo screen
Description: In order to evaluate whether these promising results could be translated into in vivo activity, two representative compounds 9d and 10a were chosen. […] These two compounds were examined in the murine P388 screen and against certain human tumors in athymic mice.
(§1) The compounds were examined by the Developmental Therapeutics Program, National Cancer Institute, U.S.A. The murine P388 lymphocytic leukemia assay was conducted by a reported known method and the maximum ILS figures for 9d and 10a were 5 and 20% respectively using doses of 54 and 6.7 mg/kg respectively. An increase of 20% or more in the life spans is considered to be statistically significant. A reference drug 5-fluorouracil has an ILS of >35 using a dose of 20 mg/kg when given intraperitoneally for five days. Passage of human tumors in athymic mice was undertaken by a known method. No definitions of activity are available but as a general rule compounds causing a 60% reduction in tumor weights in one of these screens would be evaluated further.

[21] = tested on: COLO 205; experiment: COLO 205 human colon tumor xenograft in athymic mice; type: in vivo; conditions: COLO 205; 16.8 mg/kg
Description: as §1

[22] = tested on: CAKI-1; experiment: CAKI-1 human renal tumor xenograft in athymic mice; type: in vivo; conditions: 16.8 mg/kg
Description: as §1

[23] = tested on: KM12; experiment: KM12 human colon tumor xenograft in athymic mice; type: in vivo
Description: as §1

[24] = tested on: Candida albicans; conditions: C. albicans; cited from earlier work
[25] = tested on: Aspergillus fumigatus; experiment: Murine pulmonary aspergillosis model; type: in vivo, Aspergillus fumigatus in DBA/2J female mice; conditions: 2 mg/kg/day
Description: In vivo susceptibility studies: DBA/2J female mice (Jackson Laboratories) weighing 20-23 grams (≈6 weeks old) were used. The mice were immunosuppressed by 3 consecutive subcutaneous injections (0.5 ml each) of cortisone acetate (250 mg/kg; Sigma Chemical Company) in sterile distilled water containing 0.1% Tween 80. The immunosuppressed mice were anesthetized by exposing to ether in a desiccator for 45±5 seconds and infected with 20 μl inoculum containing 1×10^6 conidia delivered to the nares of the animals as a single droplet from a micropipet. Compound 9b and AMB were dissolved in dimethyl sulfoxide (DMSO) and administered 24 hr post infection by intraperitoneal injection in 0.2 ml PBS per dose. […] The efficacy of chemotherapy was assessed by determining percent survival and the fungal load (CFU/lungs) of infected animals as determined by semiquantitative organ culture.

Compound | TIL1210 (CEM cells) [7] | TIP388 (CEM cells) [7] | TIht (CEM cells) [7] | IC50 [8] [µM] | IC50 [7] [µM] | IC50 [11] [µM] | IC50 [12] [µM] | TIL1210 (Molt 4/C8 cells) [13] | TIP388 (Molt 4/C8 cells) [13] | TIht (Molt 4/C8 cells) [13] | IC50 [13] [µM] | other results
CCC(C)n1ncn(-c2ccc(N3CCN(c4ccc(OCC5COC(Cn6cncn6)(c6ccc(Cl)cc6Cl)O5)cc4)CC3)cc2)c1=O (centres unmarked) [Itraconazole] | – | – | – | – | – | – | – | – | – | – | – | killing at 5 µM [1]: 85%; MIC ([2]; read-out: MIC Mean ± SD): 0.82 ± 0.35 µM (≈ 0.579 µg/mL); MIC ([2]; read-out: MIC Range): 0.32 to 1.29 µM (≈ 0.226 to 0.91 µg/mL); MIC ([3]; read-out: MIC Mean ± SD): 17.2 ± 5.83 µM (≈ 12.2 µg/mL); MIC ([3]; read-out: MIC Range): 5.19 to 20.8 µM (≈ 3.66 to 14.7 µg/mL); MIC ([4]; read-out: MIC Mean ± SD): 0.53 ± 0.16 µM (≈ 0.374 µg/mL); MIC ([4]; read-out: MIC Range): 0.18 to 0.72 µM (≈ 0.127 to 0.508 µg/mL)
N[C@@H](Cc1ccc(N(CCCl)CCCl)cc1)C(=O)O [melphalan, reference compound] | 1.16 | 11.23 | 0.09 | 26.3 | – | – | – | – | – | – | – | IC50 [5]: 1.16 µM; DNA ladder / DNA fragmentation [6]: A faint DNA ladder could be seen; time after which apoptotic effects were detectable [9]: 3 h; percentage of apoptotic cells ([9]; 10 μM, 17 hours, control 4.4%): 24%; death of treated cells ([9]; 48 hours): all the treated cells had died
CC[N+]1(C)CCC(O)(/C=C/c2ccc(Cl)c(Cl)c2)C(C(=O)/C=C/c2ccc(Cl)c(Cl)c2)C1 (centres unmarked) [Compound 10c] | 0.77 | 25.78 | 7.53 | 2.19 | 16.5 | 21.4 | 0.64 | 1.12 | 37.56 | 10.98 | 24 | activity relative to compound 12c, human tumors [10]: 4.36 times
O=P1(N(CCCl)CCCl)NCCCO1 (centres unmarked) [cyclophosphamide] | – | – | – | – | – | – | – | – | – | – | – | activity towards SW-620 xenograft [14]: inactive; activity towards NCI-H522 xenograft [15]: inactive; reduction of growth of CAKI-1 tumor [16]: 60-100%; activity towards COLO 205 xenograft [17]: inactive; reduction of growth of LOX IMVI tumor [18]: 100-150%
O=c1[nH]cc(F)c(=O)[nH]1 [5-fluorouracil] | – | – | – | – | – | – | – | – | – | – | – | ILS, murine P388 (reference drug) [19]: > 35
CC[N+]1(C)CCC(O)(/C=C/c2ccccc2)C(C(=O)/C=C/c2ccccc2)C1 (centres unmarked) [Compound 10a] | – | – | – | 8.31 | – | – | 2.27 | – | – | – | – | maximum ILS / increase in life span, murine P388 ([20]; 6.7 mg/kg): 20%; activity in the murine P388 screen ([20]; in words): marginal potency; Selective toxicity towards leukemia ([8]; human tumor screen): Selective toxicity towards leukemia was observed; also recorded: preferential cytotoxicity to colon and leukemic cells respectively; % ILS [21]: 14%; percent reduction in median tumor weight [21]: 20%; % ILS [22]: 6%; % T/C [22]: 43%; % T/C ([23]; 16.8 mg/kg): 45%; % ILS ([23]; 25 mg/kg): 5%
OC(Cn1cncn1)(Cn1cncn1)c1ccc(F)cc1F [fluconazole] | – | – | – | – | – | – | – | – | – | – | – | mean MIC [24]: approximately 0.8 μm
C[C@@H]1[C@H](O)[C@@H](C)/C=C/C=C/C=C/C=C/C=C/C=C/C=C/[C@H](O[C@@H]2O[C@H](C)[C@@H](O)[C@H](N)[C@@H]2O)C[C@@H]2O[C@](O)(C[C@@H](O)C[C@@H](O)[C@H](O)CC[C@@H](O)C[C@@H](O)CC(=O)O[C@H]1C)C[C@H](O)[C@H]2C(=O)O [Amphotericin B] | – | – | – | – | – | – | – | – | – | – | – | killing at 5 µM [1]: ≥ 99%; MIC ([2]; read-out: MIC Mean ± SD): 6.64 ± 3.47 µM (≈ 6.14 µg/mL); MIC ([2]; read-out: MIC Range): 4.42 to 17.7 µM (≈ 4.08 to 16.4 µg/mL); MIC ([3]; read-out: MIC Mean ± SD): 0.7 ± 0.39 µM (≈ 0.647 µg/mL); MIC ([3]; read-out: MIC Range): 0.27 to 1.11 µM (≈ 0.25 to 1.03 µg/mL); reduction of CFU/lung [25]: ≈ 66%; mean MIC [24]: ~0.6 μm; MIC ([4]; read-out: MIC Mean ± SD): 1.32 ± 0.63 µM (≈ 1.22 µg/mL); MIC ([4]; read-out: MIC Range): 0.55 to 2.22 µM (≈ 0.508 to 2.05 µg/mL)
CCN1CCC(O)(/C=C/c2ccccc2)C(C(=O)/C=C/c2ccccc2)C1 (centres unmarked) [Compound 9a] | 3.12 | 11.81 | 6.02 | 2.75 | 16.5 | 5.3 | 1.4 | 5.64 | 21.36 | 10.88 | 29.9 | –
O=C(/C=C/c1ccccc1)CCN1CCN(CCC(=O)/C=C/c2ccccc2)CC1 [Compound 8a] | 0.96 | 3.95 | 0.46 | 12 | 5.55 | 5.78 | 0.62 | 0.95 | 8.89 | 0.46 | 5.51 ± 2.73 | –
